How the values were obtained:
[1] = target: T1, human EGF-R (Homo sapiens, UniProt P00533); test: EGF Receptor ELISA (cellular/catalytic); format: cell-based; settings: 50% inhibition of PTK activity compared to that in a control; read-out: EGFR KINASE IC50
T1 construct: expressed in transfected cells; host or cells: NIH 3T3/C7 cell line
Procedure: (§1) The cellular/catalytic assays described herein are performed in an ELISA format. The general procedure is as follows: a compound is introduced to cells expressing the test kinase, either naturally or recombinantly, for a selected period of time after which, if the test kinase is a receptor, a ligand known to activate the receptor's activity is added. The cells are lysed and the lysate is transferred to the wells of an ELISA plate previously coated with a specific antibody recognizing the substrate of the enzymatic phosphorylation reaction. Non-substrate components of the cell lysate are washed away and the amount of phosphorylation on the substrate is detected with an antibody specifically recognizing phosphotyrosine and is compared with that of control cells that were not contacted with the test compound.
EGF Receptor kinase activity in cells genetically engineered to express human EGF-R can be measured as described below:
1. NIH 3T3/C7 cell line (Honegger, et al., Cell 51:199-209, 1987) can be use for this assay.
3. Resuspend cells in seeding medium (DMEM, 0.5% bovine serum), and count the cells using trypan blue. […]
12. The maximal phosphotyrosine signal is determined by subtracting the value of the negative controls from the positive controls. The percent inhibition of phosphotyrosine content for extract-containing wells is then calculated, after subtraction of the negative controls.

[2] = target: T2, FLK-1 receptor (Mus musculus, UniProt P35918); test: FLK-1 ELISA (cellular/catalytic); format: cell-based; settings: 50% inhibition of PTK activity compared to that in a control; read-out: FLK KINASE IC50
T2 construct: expressed in transfected cells; host or cells: NIH3T3 C7#3 cells
T2 sequence (P35918 20-1345): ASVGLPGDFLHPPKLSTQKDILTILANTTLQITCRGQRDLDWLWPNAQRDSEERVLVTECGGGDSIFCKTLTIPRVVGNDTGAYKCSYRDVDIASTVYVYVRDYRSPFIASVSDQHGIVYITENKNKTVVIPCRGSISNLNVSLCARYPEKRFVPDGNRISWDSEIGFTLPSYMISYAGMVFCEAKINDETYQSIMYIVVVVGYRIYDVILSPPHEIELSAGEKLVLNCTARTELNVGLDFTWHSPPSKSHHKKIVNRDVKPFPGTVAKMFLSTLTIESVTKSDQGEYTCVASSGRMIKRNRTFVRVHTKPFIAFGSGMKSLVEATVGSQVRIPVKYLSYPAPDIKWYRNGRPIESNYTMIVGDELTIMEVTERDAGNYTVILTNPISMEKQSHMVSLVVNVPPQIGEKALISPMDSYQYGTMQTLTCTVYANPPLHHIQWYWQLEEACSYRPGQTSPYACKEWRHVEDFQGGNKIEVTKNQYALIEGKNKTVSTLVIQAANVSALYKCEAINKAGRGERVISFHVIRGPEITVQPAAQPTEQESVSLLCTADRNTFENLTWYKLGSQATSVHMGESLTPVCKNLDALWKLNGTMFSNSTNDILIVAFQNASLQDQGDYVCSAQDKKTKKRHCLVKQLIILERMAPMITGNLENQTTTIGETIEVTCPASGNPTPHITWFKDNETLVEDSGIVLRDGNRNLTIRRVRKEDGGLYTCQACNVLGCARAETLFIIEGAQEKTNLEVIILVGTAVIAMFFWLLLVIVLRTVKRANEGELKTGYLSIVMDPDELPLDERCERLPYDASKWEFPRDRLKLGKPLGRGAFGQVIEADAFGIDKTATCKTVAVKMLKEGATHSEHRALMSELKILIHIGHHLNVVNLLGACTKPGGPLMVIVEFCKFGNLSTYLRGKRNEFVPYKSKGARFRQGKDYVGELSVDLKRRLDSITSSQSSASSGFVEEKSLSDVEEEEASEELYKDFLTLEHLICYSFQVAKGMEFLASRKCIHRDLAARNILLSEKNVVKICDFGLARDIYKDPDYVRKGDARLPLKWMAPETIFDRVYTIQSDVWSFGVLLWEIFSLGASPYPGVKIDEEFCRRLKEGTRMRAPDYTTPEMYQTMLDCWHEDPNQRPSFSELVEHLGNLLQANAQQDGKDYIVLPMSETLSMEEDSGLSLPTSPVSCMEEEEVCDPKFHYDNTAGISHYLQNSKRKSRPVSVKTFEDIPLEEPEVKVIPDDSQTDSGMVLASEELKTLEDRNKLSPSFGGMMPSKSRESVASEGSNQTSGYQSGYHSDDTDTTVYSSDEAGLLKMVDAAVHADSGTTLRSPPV
Procedure: as §1
An ELISA assay is conducted to measure the kinase activity of the FLK-1 receptor and more specifically, the inhibition or activation of TK activity on the FLK-1 receptor. Specifically, the following assay can be conducted to measure kinase activity of the FLK-1 receptor in cells genetically engineered to express Flk-1.
k. NIH3T3 C7#3 Cells (FLK-1 expressing cells);
1. Coat Corning 96-well ELISA plates with 1.0 μg per well Cappel Anti-rabbit IgG antibody in 0.1M Na2CO3 pH 9.6. Bring final volume to 150 μl per well. Coat plates overnight at 4° C. […]

T1 sequence (P00533 25-1210): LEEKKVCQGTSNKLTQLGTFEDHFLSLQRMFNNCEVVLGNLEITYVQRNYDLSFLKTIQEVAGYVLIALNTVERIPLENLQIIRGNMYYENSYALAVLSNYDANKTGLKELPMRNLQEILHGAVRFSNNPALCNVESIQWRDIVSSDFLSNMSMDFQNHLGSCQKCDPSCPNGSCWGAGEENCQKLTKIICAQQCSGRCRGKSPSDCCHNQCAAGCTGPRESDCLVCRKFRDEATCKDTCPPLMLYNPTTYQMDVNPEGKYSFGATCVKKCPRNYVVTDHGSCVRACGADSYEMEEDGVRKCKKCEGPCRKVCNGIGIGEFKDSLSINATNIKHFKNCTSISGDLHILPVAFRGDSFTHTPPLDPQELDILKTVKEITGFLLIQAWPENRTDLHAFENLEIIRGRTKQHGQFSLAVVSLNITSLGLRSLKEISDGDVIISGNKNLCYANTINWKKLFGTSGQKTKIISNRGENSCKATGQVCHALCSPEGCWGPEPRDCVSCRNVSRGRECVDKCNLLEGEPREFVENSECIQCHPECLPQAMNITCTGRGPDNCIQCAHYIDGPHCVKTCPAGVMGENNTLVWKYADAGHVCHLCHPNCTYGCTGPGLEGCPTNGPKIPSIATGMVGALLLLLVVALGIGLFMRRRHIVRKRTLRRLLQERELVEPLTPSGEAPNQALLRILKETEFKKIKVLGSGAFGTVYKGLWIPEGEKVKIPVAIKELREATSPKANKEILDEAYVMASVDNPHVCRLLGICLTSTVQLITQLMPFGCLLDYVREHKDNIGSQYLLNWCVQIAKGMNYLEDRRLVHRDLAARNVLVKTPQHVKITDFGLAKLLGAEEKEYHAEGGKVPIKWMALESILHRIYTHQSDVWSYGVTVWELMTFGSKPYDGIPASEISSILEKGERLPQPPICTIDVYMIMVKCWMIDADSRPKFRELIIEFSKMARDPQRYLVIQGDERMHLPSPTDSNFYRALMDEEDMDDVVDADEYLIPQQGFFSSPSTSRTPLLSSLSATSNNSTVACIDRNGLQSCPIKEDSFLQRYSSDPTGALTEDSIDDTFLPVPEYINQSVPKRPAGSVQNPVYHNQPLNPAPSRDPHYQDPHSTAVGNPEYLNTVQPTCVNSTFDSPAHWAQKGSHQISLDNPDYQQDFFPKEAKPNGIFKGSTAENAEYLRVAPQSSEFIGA

Cc1nc2c(nc1C)CC1=NC(c3ccccc3)=NC1=C2 [6,7-dimethyl-2-phenylimidazo[4,5-g]quinoxaline] was tested, and the IC50 [1] was over 100 µM and the IC50 [2] was 88.4 µM.

Reference: patent US6656940B2, “Tricyclic quinoxaline derivatives as protein tyrosine kinase inhibitors” (Sugen, Inc., priority 1997, dated 2003)
